# Measured values published in patent US4112086A, “7β-Acylamino-3-(phosphonoalkyl and esterified phosphonoalkyl substituted tetrazolylthiomethyl)cephalosporins” (SmithKline Corporation, priority 1976, dated 1978).
# Structures can show the parent of a compound that is named as a salt. Where two headings read alike, the source gives them in different places.
# Key:
# [1] = test system: E. coli HH 33779; assay: in vitro testing, minimum inhibitory concentration (MIC); type: cell-based
# Experimental: (§1) The compounds of Formula I have anti-bacterial activity against both Gram-positive and Gram-negative organisms. Minimum inhibitory concentrations (MIC's) range from 0.1 to >200 μg/ml in in vitro testing. Test results for the compounds 7β-D-mandelamido-3-(1-diethoxyphosphinylmethyltetrazol-5-ylthiomethyl)-3-cephem-4-carboxylic acid sodium salt hydrate (Compound A), 7β-D-mandelamido-3-(1-ethoxyhydroxyphosphinylmethyltetrazol-5-ylthiomethyl)-3-cephem-4-carboxylic acid disodium salt hydrate (Compound B) and 7β-D-mandelamido-3-(1-phosphonomethyltetrazol-5-ylthiomethyl)-3-cephem-4-carboxylic acid (Compound C) are given below. Results shown in parenthesis are those obtained for cefazolin.
# [2] = test system: E. coli SK 12140; assay: as above; type: cell-based
# Experimental: as §1
# [3] = test system: Entero. aerog. ATCC 13048; assay: as above; type: cell-based
# Experimental: as §1
# [4] = test system: Entero. cloacae HH 31254; assay: as above; type: cell-based; details: Enterobacter cloacae, HH31254
# Experimental: as §1
# [5] = test system: Kleb. pneumo. SK 1200; assay: as above; type: cell-based
# Experimental: as §1
# [6] = test system: Kleb. pneumo. SK 4200; assay: as above; type: cell-based; details: cefazolin values in parenthesis
# Experimental: as §1
# [7] = test system: Proteus mirabilis 444; assay: as above; type: cell-based
# Experimental: as §1
# [8] = test system: Proteus morgani 179; assay: as above; type: cell-based; details: cefazolin values in parenthesis
# Experimental: as §1
# [9] = test system: Pseudo. aerug. HH 63; assay: as above; type: cell-based
# Experimental: as §1
# [10] = test system: S. aureus SK 23390; assay: as above; type: cell-based
# Experimental: as §1
# [11] = test system: S. villaluz SK 70390; assay: as above; type: cell-based; details: cefazolin values in parenthesis
# Experimental: as §1
# [12] = test system: Salmonella ATCC 12176; assay: as above; type: cell-based
# Experimental: as §1
# [13] = test system: Serratia marc. ATCC 13880; assay: as above; type: cell-based
# Experimental: as §1
# [14] = test system: Strep. faecalis HH 34358; assay: as above; type: cell-based
# Experimental: as §1
# [15] = test system: S. aureus SK 127; assay: as above; type: cell-based; details: Staphylococcus aureus, SK127, cefazolin values in parenthesis
# Experimental: as §1
# [16] = test system: E. coli 12140; assay: in vivo mouse protection test
# Experimental: (§2) 4200 upon subcutaneous injection; cefazolin gave results of 4.4 mg/kg against E. coli 12140 and 7.2 mg/kg against Kleb. pneumo. 4200 upon subcutaneous administration.
# [17] = test system: Kleb. pneumo. 4200; assay: in vivo mouse protection test; details: sc
# Experimental: as §2
# [18] = Escherichia coli, HH33779, E. coli HH 33779, cefazolin values in parenthesis, read-out: MIC
# [19] = Escherichia coli, SK12140, E. coli SK 12140, in vitro, cefazolin values in parenthesis, read-out: MIC
# [20] = Entero. cloacae HH 31254, in vitro, cefazolin values in parenthesis, read-out: MIC
# [21] = Kleb. pneumo. SK 1200, in vitro, cefazolin values in parenthesis, read-out: MIC
# [22] = Proteus mirabilis 444, cefazolin values in parenthesis, read-out: MIC
# [23] = Pseudo. aerug. HH 63, in vitro, cefazolin values in parenthesis, read-out: MIC
# [24] = Staphylococcus aureus, SK23390, S. aureus SK 23390, in vitro, cefazolin values in parenthesis, read-out: MIC
# [25] = Salmonella, ATCC12176, Salmonella ATCC 12176, cefazolin values in parenthesis, read-out: MIC
# [26] = Serratia, ATCC13880, Serratia marc. ATCC 13880, cefazolin values in parenthesis, read-out: MIC
# [27] = Enterococcus faecalis, HH34358, cefazolin values in parenthesis, read-out: MIC
# [28] = Entero. aerog. ATCC 13048, in vitro, cefazolin values in parenthesis, read-out: MIC
SMILES,MIC [8] [µg/mL],MIC ([11]; read-out: MIC) [µg/mL],"MIC [1, 18] [µg/mL]","MIC [2, 19] [µg/mL]","MIC [4, 20] [µg/mL]","MIC [5, 21] [µg/mL]",MIC ([6]; read-out: MIC) [µg/mL],"MIC [7, 22] [µg/mL]",MIC ([8]; read-out: MIC) [µg/mL],"MIC [9, 23] [µg/mL]",MIC [15] [µg/mL],"MIC [10, 24] [µg/mL]","MIC [12, 25] [µg/mL]","MIC [13, 26] [µg/mL]","MIC [14, 27] [µg/mL]","MIC [3, 28] [µg/mL]",other results
"CCOP(=O)(Cn1nnnc1SCC1=C(C(=O)[O-])N2C(=O)[C@@H](NC(=O)[C@H](O)c3ccccc3)[C@H]2SC1)OCC.O.[Na+] [Compound A, 7β-D-mandelamido-3-(1-diethoxyphosphinylmethyltetrazol-5-ylthiomethyl)-3-cephem-4-carboxylic acid sodium salt hydrate]",3.1,50,,,,,,,,,,,,,,,"MIC ([1]; E. coli HH 33779, cefazolin values in parenthesis, sodium salt hydrate): 6.3 µg/mL; MIC ([1]; Escherichia coli, HH33779, E. coli HH 33779, cefazolin values in parenthesis): 12.5 µg/mL; MIC ([2]; Escherichia coli, SK12140): 6.3 µg/mL; MIC [3]: 12.5 µg/mL; MIC [4]: 3.1 µg/mL; MIC [5]: 3.1 µg/mL; MIC [6]: 3.1 µg/mL; MIC ([6]; sodium salt hydrate): 1.6 µg/mL; MIC ([7]; Proteus mirabilis 444, cefazolin values in parenthesis, sodium salt hydrate): 1.6 µg/mL; MIC ([7]; Proteus mirabilis, 444, Proteus mirabilis 444, cefazolin values in parenthesis): 3.1 µg/mL; MIC ([8]; sodium salt hydrate): 1.6 µg/mL; MIC [9]: > 200 µg/mL; MIC ([10]; Staphylococcus aureus, SK23390): 0.8 µg/mL; MIC ([12]; Salmonella ATCC 12176, cefazolin values in parenthesis, sodium salt hydrate): 1.6 µg/mL; MIC ([12]; Salmonella, ATCC12176, Salmonella ATCC 12176, cefazolin values in parenthesis): 3.1 µg/mL; MIC ([13]; Serratia marc. ATCC 13880, cefazolin values in parenthesis, sodium salt hydrate): 12.5 µg/mL; MIC ([13]; Serratia, ATCC13880, Serratia marc. ATCC 13880, cefazolin values in parenthesis): 25 µg/mL; MIC ([14]; Enterococcus faecalis, HH34358, cefazolin values in parenthesis): 12.5 µg/mL; MIC ([14]; cefazolin values in parenthesis, sodium salt hydrate): 25 µg/mL"
"Cc1nnc(SCC2=C(C(=O)O)N3C(=O)[C@@H](NC(=O)Cn4cnnn4)[C@H]3SC2)s1 [cefazolin, reference compound]",100,,1.6,0.8,0.8,0.8,1.6,3.1,200,> 200,0.4,0.4,0.8,> 200,6.3,,"MIC ([1]; E. coli HH 33779, cefazolin values in parenthesis): 0.8 µg/mL; MIC ([5]; Kleb. pneumo. SK 1200, in vitro, cefazolin values in parenthesis): 0.4 µg/mL; MIC ([10]; S. aureus SK 23390, in vitro, cefazolin values in parenthesis): 0.2 µg/mL; MIC [11]: 100 µg/mL; MIC ([12]; Salmonella ATCC 12176, cefazolin values in parenthesis): 0.4 µg/mL; MIC ([13]; ATCC13880, Serratia marc. ATCC 13880, cefazolin values in parenthesis, read-out: MIC): 50 µg/mL; ED50 ([16]; Escherichia coli, sc, mouse protection, E. coli 12140, subcutaneous, read-out: ED50): 4.4 mg/kg; ED50 ([17]; mouse protection, Kleb. pneumo. 4200, subcutaneous, read-out: ED50): 7.2 mg/kg"
"CCOP(=O)(O)Cn1nnnc1SCC1=C(C(=O)O)N2C(=O)[C@@H](NC(=O)[C@H](O)c3ccccc3)[C@H]2SC1 [Compound B, 7β-D-mandelamido-3-(1-ethoxyhydroxyphosphinylmethyltetrazol-5-ylthiomethyl)-3-cephem-4-carboxylic acid disodium salt hydrate]",,> 200,1.6,0.4,0.8,0.4,0.4,1.6,,> 200,6.3,1.6,,,100,3.1,"MIC ([2]; E. coli SK 12140, in vitro, cefazolin values in parenthesis, disodium salt hydrate): 0.8 µg/mL; MIC ([14]; cefazolin values in parenthesis, disodium salt hydrate): 50 µg/mL; ED50 ([16]; Escherichia coli, 12140, sc): 1.02 mg/kg; ED50 ([17]; Mus musculus): 0.39 mg/kg"
"O=C(O)C1=C(CSc2nnnn2CP(=O)(O)O)CS[C@@H]2[C@H](NC(=O)[C@H](O)c3ccccc3)C(=O)N12 [Compound C, 7β-D-mandelamido-3-(1-phosphonomethyltetrazol-5-ylthiomethyl)-3-cephem-4-carboxylic acid]",,> 200,3.1,3.1,1.6,0.8,1.6,0.4,50,> 200,6.3,3.1,0.8,3.1,200,6.3,
